From PubChem BioAssay AID2060486 (Molecular Pharmacology Branch, DTP, NCI, 2025)

System: IGROV1 complex spheroids (HUVEC, MSC), viability % test/control
Experiment: Anticancer human tumor IGROV1 cell line growth inhibition [GQUAD];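 also: spheroids exposed to compounds for 7 days before readout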;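 as to viability, T/C: 100% = DMSO vehicle control viability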
Details: for IC50: curve of first compound; for viability, T/C: stronger effect = lower value
Method in brief: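 Multi-cell-type spheroids of tumor cells with HUVEC and mesenchymal stem cells, treated with drug combinations. Concentrations descend in half-log steps from near clinical Cmax, or from 10 microM where Cmax is unknown; viability read-out.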

[1] = second compound 0.0316 µM, first compound 0.0316 µM
[2] = second compound 0.0316 µM, first compound 0.1 µM
[3] = second compound 0.0316 µM, first compound 0.316 µM
[4] = second compound 0.0316 µM, first compound 1 µM
[5] = second compound 0.0316 µM, first compound 3.16 µM
[6] = second compound 0.0316 µM, first compound 10 µM
[7] = second compound 0.1 µM, first compound 0.0316 µM
[8] = second compound 0.1 µM, first compound 0.1 µM
[9] = second compound 0.1 µM, first compound 0.316 µM
[10] = second compound 0.1 µM, first compound 1 µM
[11] = second compound 0.1 µM, first compound 3.16 µM
[12] = second compound 0.1 µM, first compound 10 µM
[13] = second compound 0.316 µM, first compound 0.0316 µM
[14] = second compound 0.316 µM, first compound 0.1 µM
[15] = second compound 0.316 µM, first compound 0.316 µM
[16] = second compound 0.316 µM, first compound 1 µM
[17] = second compound 0.316 µM, first compound 3.16 µM
[18] = second compound 0.316 µM, first compound 10 µM
[19] = second compound 1 µM, first compound 0.0316 µM
[20] = second compound 1 µM, first compound 0.1 µM
[21] = second compound 1 µM, first compound 0.316 µM
[22] = second compound 1 µM, first compound 1 µM
[23] = second compound 1 µM, first compound 3.16 µM
[24] = second compound 1 µM, first compound 10 µM
[25] = second compound 3.16 µM, first compound 0.0316 µM
[26] = second compound 3.16 µM, first compound 0.1 µM
[27] = second compound 3.16 µM, first compound 0.316 µM
[28] = second compound 3.16 µM, first compound 1 µM
[29] = second compound 3.16 µM, first compound 3.16 µM
[30] = second compound 3.16 µM, first compound 10 µM
[31] = second compound 10 µM, first compound 0.0316 µM
[32] = second compound 10 µM, first compound 0.1 µM
[33] = second compound 10 µM, first compound 0.316 µM
[34] = second compound 10 µM, first compound 1 µM
[35] = second compound 10 µM, first compound 3.16 µM
[36] = second compound 10 µM, first compound 10 µM

CC(=O)O[C@H]1C(=O)[C@@]2(C)[C@H]([C@H](OC(=O)c3ccccc3)[C@]3(O)C[C@H](OC(=O)[C@H](O)[C@@H](NC(=O)c4ccccc4)c4ccccc4)C(C)=C1C3(C)C)[C@]1(OC(C)=O)CO[C@@H]1C[C@@H]2O + Cc1cnc(CNC(=O)c2c(=O)c3ccc(N4CCCN(C)CC4)nc3n3c2sc2ccccc23)cn1
IC50 (second compound 0.0316 µM): < 31.6 nM | IC50 (second compound 0.1 µM): < 31.6 nM | IC50 (second compound 0.316 µM): < 31.6 nM | IC50 (second compound 1 µM): < 31.6 nM | IC50 (second compound 3.16 µM): < 31.6 nM | IC50 (second compound 10 µM): < 31.6 nM | viability, T/C [1]: 6.85% | viability, T/C [2]: 7.2% | viability, T/C [3]: 5.93% | viability, T/C [4]: 4.84% | viability, T/C [5]: 5.81% | viability, T/C [6]: 5% | viability, T/C [7]: 8.41% | viability, T/C [8]: 6.77% | viability, T/C [9]: 4.59% | viability, T/C [10]: 5.47% | viability, T/C [11]: 5.23% | viability, T/C [12]: 5.1% | viability, T/C [13]: 7.94% | viability, T/C [14]: 7.36% | viability, T/C [15]: 5.21% | viability, T/C [16]: 5.4% | viability, T/C [17]: 5.37% | viability, T/C [18]: 5.62% | viability, T/C [19]: 8.3% | viability, T/C [20]: 8.57% | viability, T/C [21]: 6.36% | viability, T/C [22]: 6.43% | viability, T/C [23]: 6.28% | viability, T/C [24]: 5.79% | viability, T/C [25]: 7.17% | viability, T/C [26]: 6.44% | viability, T/C [27]: 7.03% | viability, T/C [28]: 6.22% | viability, T/C [29]: 6.75% | viability, T/C [30]: 5.4% | viability, T/C [31]: 5.82% | viability, T/C [32]: 6.66% | viability, T/C [33]: 6.12% | viability, T/C [34]: 6.29% | viability, T/C [35]: 6.72% | viability, T/C [36]: 6.2%

CC(C)(O)C1CCC(Nc2ccc3ncc(-c4cccc(C(F)(F)F)c4)n3n2)CC1 (stereo not drawn) + Cc1cnc(CNC(=O)c2c(=O)c3ccc(N4CCCN(C)CC4)nc3n3c2sc2ccccc23)cn1
IC50 (second compound 0.0316 µM): 429 nM | IC50 (second compound 0.1 µM): < 31.6 nM | IC50 (second compound 0.316 µM): < 31.6 nM | IC50 (second compound 1 µM): < 31.6 nM | IC50 (second compound 3.16 µM): < 31.6 nM | IC50 (second compound 10 µM): < 31.6 nM | viability, T/C [1]: 71.3% | viability, T/C [2]: 68.4% | viability, T/C [3]: 55.7% | viability, T/C [4]: 34% | viability, T/C [5]: 20.2% | viability, T/C [6]: 16.9% | viability, T/C [7]: 35.6% | viability, T/C [8]: 32.7% | viability, T/C [9]: 33.9% | viability, T/C [10]: 26% | viability, T/C [11]: 14.1% | viability, T/C [12]: 10.2% | viability, T/C [13]: 24.9% | viability, T/C [14]: 25.8% | viability, T/C [15]: 17.4% | viability, T/C [16]: 20.5% | viability, T/C [17]: 14.8% | viability, T/C [18]: 11.4% | viability, T/C [19]: 17% | viability, T/C [20]: 17.6% | viability, T/C [21]: 16.2% | viability, T/C [22]: 16.5% | viability, T/C [23]: 9.63% | viability, T/C [24]: 7.48% | viability, T/C [25]: 12.5% | viability, T/C [26]: 9.36% | viability, T/C [27]: 10.4% | viability, T/C [28]: 10.4% | viability, T/C [29]: 7.96% | viability, T/C [30]: 1.27% | viability, T/C [31]: 10% | viability, T/C [32]: 9.42% | viability, T/C [33]: 9.42% | viability, T/C [34]: 5.73% | viability, T/C [35]: 8.46% | viability, T/C [36]: 0.12%

CCCS(=O)(=O)Nc1ccc(F)c(C(=O)c2c[nH]c3ncc(-c4ccc(Cl)cc4)cc23)c1F + Cc1cnc(CNC(=O)c2c(=O)c3ccc(N4CCCN(C)CC4)nc3n3c2sc2ccccc23)cn1
IC50 (second compound 0.0316 µM): 1470 nM | IC50 (second compound 0.1 µM): < 31.6 nM | IC50 (second compound 0.316 µM): < 31.6 nM | IC50 (second compound 1 µM): < 31.6 nM | IC50 (second compound 3.16 µM): < 31.6 nM | IC50 (second compound 10 µM): < 31.6 nM | viability, T/C [1]: 77.1% | viability, T/C [2]: 71.3% | viability, T/C [3]: 50.1% | viability, T/C [4]: 52.3% | viability, T/C [5]: 51.9% | viability, T/C [6]: 14.2% | viability, T/C [7]: 44.5% | viability, T/C [8]: 42.7% | viability, T/C [9]: 41.1% | viability, T/C [10]: 31.6% | viability, T/C [11]: 37.9% | viability, T/C [12]: 9.64% | viability, T/C [13]: 21% | viability, T/C [14]: 33.1% | viability, T/C [15]: 25.4% | viability, T/C [16]: 24.6% | viability, T/C [17]: 14.4% | viability, T/C [18]: 7.38% | viability, T/C [19]: 15.1% | viability, T/C [20]: 17.2% | viability, T/C [21]: 11.9% | viability, T/C [22]: 15.9% | viability, T/C [23]: 14.6% | viability, T/C [24]: 5.36% | viability, T/C [25]: 9.19% | viability, T/C [26]: 7.43% | viability, T/C [27]: 10.5% | viability, T/C [28]: 10.6% | viability, T/C [29]: 9.32% | viability, T/C [30]: 4.31% | viability, T/C [31]: 10.1% | viability, T/C [32]: 9.63% | viability, T/C [33]: 8.82% | viability, T/C [34]: 8.04% | viability, T/C [35]: 6.37% | viability, T/C [36]: 5.19%

O=C(NO)c1cnc(N2CCN(S(=O)(=O)c3ccc4ccccc4c3)CC2)nc1 + Cc1cnc(CNC(=O)c2c(=O)c3ccc(N4CCCN(C)CC4)nc3n3c2sc2ccccc23)cn1
IC50 (second compound 0.0316 µM): < 31.6 nM | IC50 (second compound 0.1 µM): < 31.6 nM | IC50 (second compound 0.316 µM): < 31.6 nM | IC50 (second compound 1 µM): < 31.6 nM | IC50 (second compound 3.16 µM): < 31.6 nM | IC50 (second compound 10 µM): < 31.6 nM | viability, T/C [1]: 49.6% | viability, T/C [2]: 21.8% | viability, T/C [3]: 4.13% | viability, T/C [4]: 0.2% | viability, T/C [5]: 0.06% | viability, T/C [6]: 0.06% | viability, T/C [7]: 16.4% | viability, T/C [8]: 10.6% | viability, T/C [9]: 2.94% | viability, T/C [10]: 0.19% | viability, T/C [11]: 0.06% | viability, T/C [12]: 0.05% | viability, T/C [13]: 11% | viability, T/C [14]: 9.94% | viability, T/C [15]: 2.34% | viability, T/C [16]: 0.05% | viability, T/C [17]: 0.03% | viability, T/C [18]: 0.05% | viability, T/C [19]: 8.18% | viability, T/C [20]: 8.18% | viability, T/C [21]: 1.32% | viability, T/C [22]: 0.04% | viability, T/C [23]: 0.03% | viability, T/C [24]: 0.05% | viability, T/C [25]: 5.96% | viability, T/C [26]: 4.03% | viability, T/C [27]: 0.06% | viability, T/C [28]: 0.04% | viability, T/C [29]: 0.05% | viability, T/C [30]: 0.06% | viability, T/C [31]: 6.31% | viability, T/C [32]: 6.49% | viability, T/C [33]: 0.09% | viability, T/C [34]: 0.07% | viability, T/C [35]: 0.1% | viability, T/C [36]: 0.1%
